Experimental data from patent US20240197683A1 (JIANGSU UNIVERSITY, priority 2023, published 2024).
Where a name gives a salt, the structure may show the parent alone. Read-outs that look alike come from different tables or passages of the source.

Experiments:
[1] = system: mice with LPS-induced sepsis; experiment: Edema in organs (wet/dry weight ratio) of mice with sepsis; type: in vivo; conditions: prevention
[2] = system: cytokine-infused rats; conditions: cited from earlier work
[3] = system: mice with sepsis-related acute lung injury; experiment: Efficacy of HucMSC-NVs loaded with ergothioneine in sepsis-related acute lung injury; type: in vivo; conditions: FIG. 11 A-C
Text: Referring to FIG. 11, three classical inflammatory factors (IL-1β, IL-6, and TNF-α) in BALF are shown in panels A-C.

[4] = system: IL-6, IL-1β and TNF-α in mouse serum; experiment: Inflammatory factors in blood of mice with sepsis at different time points; type: in vivo
[5] = system: TLR-4/MyD88/NF-κB signaling pathway; experiment: Related gene expression in lung tissues of mice with sepsis; type: in vivo; conditions: after treatment and prevention
Text: The differences are of statistical significance.

[6] = system: mice with LPS-induced sepsis; conditions: 20 mg/kg LPS i.p.; for average survival time: LPS group 28.8±6.22 h
Protocol: Method: A mouse model of sepsis was induced by intraperitoneal injection of different toxic doses of 5 mg/kg, 10 mg/kg and 20 mg/kg LPS, and the effects of different doses of LPS on the survival rate of mice with sepsis were observed.
Sepsis was induced by intraperitoneal injection of 5 mg/kg, 10 mg/kg and 20 mg/kg LPS. […] Sepsis was induced by intraperitoneal injection of 20 mg/kg LPS.

[7] = system: A549 cells; conditions: co-treatment with TNF-α or H2O2; cited from earlier work
[8] = system: mice with sepsis-related acute lung injury; experiment: Sepsis-related acute lung injury in mice (BALF, leakage, arterial oxygen); type: in vivo
Text: Comparisons of data between the four groups are of statistical significance.
Changes in the protein content of mouse BALF, the Evans blue content and the wet/dry weight ratio are shown. […] There is a downward trend in the arterial partial pressure of oxygen in all the injury group mice relative to the normal mice.

[9] = prevention: tail vein injection 1 h before 20 mg/kg LPS i.p., FIG. 3
[10] = treatment: tail vein injection 2 h after 20 mg/kg LPS i.p., FIG. 4

In the case of `C[N+](C)(C)[C@@H](Cc1c[nH]c(=S)[nH]1)C(=O)[O-]` [ergothioneine, (S)-α-Carboxy-N,N,N-trimethyl-2-mercapto-1H-imidazole-4-ethanaminium inner salt], the kidney edema [1] is listed as “not significantly ameliorated”, the acute lung injury [2] is listed as “reduce acute lung injury” and the “level of inflammatory factors in BALF (IL-6, TNF-α, IL-1β)” value [3] is listed as “reduced the level of inflammatory factors in BALF”. The “IL-1β release in blood” value [4, 9] was “significantly reduced”, the “IL-6 release in blood” value [4, 9] was “significantly reduced” and the “IL-6 release in blood” value [4, 10] was “significantly reduced”. The “TNF-α release in blood” value [4, 10] was “significantly reduced”, the TLR-4 gene expression ([5]; FIG. 9 A) was “significantly down-regulated” and the MyD88 gene expression ([5]; FIG. 9 B) was “significantly down-regulated”. For the same compound, the NF-κB gene expression ([5]; FIG. 9 C) was “significantly down-regulated”, the average survival time ([6]; 5 mg/kg ergothioneine) was 41.4 ± 10.48 h and the average survival time ([6]; 10 mg/kg ergothioneine) was 44.4 ± 3.921 h. For the same compound, the “mortality in mice with sepsis” value ([6]; FIG. 2) was “reduced mortality”, the average survival time ([6]; 50 mg/kg ergothioneine) was 46.8 ± 2.68 h and the mice died ([6]; prevention, 5 mg/kg ergothioneine) was 2 mice. The mice died ([6]; prevention, 10 mg/kg ergothioneine) was 3 mice, the mice died ([6]; prevention, 20 mg/kg ergothioneine) was “all” and the mice died ([6]; prevention, 50 mg/kg ergothioneine) was 1 mouse. The mice died ([6]; treatment, 5 mg/kg ergothioneine) was “all”, the mice died ([6]; treatment, 10 mg/kg ergothioneine) was “all” and the mice died ([6]; treatment, 20 mg/kg ergothioneine) was 4 mice. The mice died ([6]; treatment, 50 mg/kg ergothioneine) was 3 mice, the GSH level [7] was “protected the cells from decreases in the GSH level” and the NF-κB activation [7] was “inhibited NF-κB activation”. For the same compound, the “arterial partial pressure of oxygen” value ([8]; different concentrations of EGT, FIG. 7 G) was “significantly improved” and the “inflammatory factor levels in BALF (IL-1β, IL-6 and TNF-α)” value ([8]; four groups with different concentrations of ergothioneine, FIG. 7 A-C) was “reduced inflammatory factor levels in BALF”.
